Data taken from ChEMBL document CHEMBL1143399, “A small-molecule nitroimidazopyran drug candidate for the treatment of tuberculosis” (Nature, 2000).
≈ marks a conversion by molar mass, not a printed value. Calls of active or inactive are those of the source. The rule behind the calls is not given here.

Tests used:
[1] = tested on: Mycobacterium tuberculosis; assay: Antimycobacterial activity against pan-susceptible Mycobacterium tuberculosis TN3183; format: functional
[2] = tested on: Mycobacterium tuberculosis; assay: Antimycobacterial activity against pan-susceptible Mycobacterium tuberculosis TN2351; format: functional
[3] = tested on: Mycobacterium tuberculosis; assay: Antimycobacterial activity against pan-susceptible Mycobacterium tuberculosis TN3979; format: functional
[4] = tested on: Mycobacterium tuberculosis; assay: Antimycobacterial activity against pan-susceptible Mycobacterium tuberculosis TN1082; format: functional
[5] = tested on: Mycobacterium tuberculosis; assay: Antimycobacterial activity against pan-susceptible Mycobacterium tuberculosis TN1051; format: functional
[6] = tested on: Mycobacterium tuberculosis; assay: Antimycobacterial activity against pan-susceptible Mycobacterium tuberculosis TN2524; format: functional
[7] = tested on: Mycobacterium tuberculosis; assay: Antimycobacterial activity against pan-susceptible Mycobacterium tuberculosis TN1008; format: functional
[8] = tested on: Mycobacterium tuberculosis; assay: Antimycobacterial activity against pan-susceptible Mycobacterium tuberculosis TN4259; format: functional
[9] = tested on: Mycobacterium tuberculosis; assay: Antimycobacterial activity against pan-susceptible Mycobacterium tuberculosis TN913; format: functional
[10] = tested on: Mycobacterium tuberculosis; assay: Antimycobacterial activity against pan-susceptible Mycobacterium tuberculosis TN1037; format: functional
[11] = tested on: Mycobacterium tuberculosis; assay: Antimicrobial activity against log phase recombinant Mycobacterium tuberculosis H37Rv-lux with plasmid MV361 at 10 ug/ml incubated for 7 days assessed as bacterial count after 4 days; format: functional
[12] = tested on: Mycobacterium tuberculosis; assay: Antimycobacterial activity against pan-susceptible Mycobacterium tuberculosis TN1040; format: functional
[13] = tested on: Mycobacterium tuberculosis; assay: Antimycobacterial activity against pan-susceptible Mycobacterium tuberculosis H37Rv; format: functional
[14] = tested on: Mycobacterium tuberculosis; assay: Antimicrobial activity against log phase recombinant Mycobacterium tuberculosis H37Rv-lux with plasmid MV361 at 10 ug/ml incubated for 7 days assessed as bacterial count; format: functional
[15] = tested on: Mycobacterium tuberculosis; assay: Antimycobacterial activity against Mycobacterium tuberculosis H37Rv ATCC 27294 infected in Hartley guinea pig assessed as reduction in mycobacterial burden in lung at 40 mg/kg, po daily after 30 days of infection for 30 days relative to isoniazid; format: functional, organism-based; parameters: dose 40 mg/kg
[16] = tested on: Mycobacterium tuberculosis; assay: Antimycobacterial activity against Mycobacterium tuberculosis H37Rv with plasmid MH102 infected in BALB/c mouse assessed as reduction in mycobacterial burden in spleen at 25 mg/kg, po daily after 4 days of infection for 10 days relative to isoniazid; format: functional, organism-based; parameters: dose 25 mg/kg
Mus musculus [17] = assay: Acute toxicity in Mycobacterium tuberculosis H37Rv infected BALB/c mouse at >1000 mg/kg, po single dose; format: organism-based; conditions: in vivo
[18] = tested on: Mycobacterium tuberculosis; assay: Antimycobacterial activity against Mycobacterium tuberculosis H37Rv with plasmid MH102 infected in BALB/c mouse assessed as reduction in mycobacterial burden in lung at 25 mg/kg, po daily after 4 days of infection for 10 days relative to isoniazid; format: functional, organism-based; parameters: dose 25 mg/kg
Mus musculus [19] = assay: Chronic toxicity in Mycobacterium tuberculosis H37Rv infected BALB/c mouse at >500 mg/kg, po for 28 days; format: organism-based; conditions: in vivo, 672 h
[20] = tested on: Mycobacterium tuberculosis; assay: Antimycobacterial activity against Mycobacterium tuberculosis H37Rv with plasmid MH102 infected in BALB/c mouse assessed as reduction in mycobacterial burden in lung at 50 mg/kg, po daily after 4 days of infection for 7 to 60 days relative to isoniazid; format: functional, organism-based; parameters: dose 50 mg/kg
[21] = tested on: Mycobacterium tuberculosis; assay: Antimycobacterial activity against Mycobacterium tuberculosis clinical isolate IS6110 infected in mouse at 25 mg/kg, po; format: functional, organism-based; parameters: dose 25 mg/kg
[22] = tested on: Mycobacterium tuberculosis; assay: Antimycobacterial activity against Mycobacterium tuberculosis H37Rv with plasmid MH102 infected in BALB/c mouse assessed as reduction in mycobacterial burden in lung at 100 mg/kg, po daily after 4 days of infection for 7 to 60 days relative to isoniazid; format: functional, organism-based; parameters: dose 100 mg/kg
[23] = tested on: Mycobacterium tuberculosis; assay: Antimycobacterial activity against Mycobacterium tuberculosis H37Rv ATCC 27294 infected in Hartley guinea pig assessed as reduction in mycobacterial burden in spleen at 40 mg/kg, po daily after 30 days of infection for 30 days relative to isoniazid; format: functional, organism-based; parameters: dose 40 mg/kg

Structure (SMILES)	MIC [1] [µg/mL]	MIC [2] [µg/mL]	MIC [3] [µg/mL]	MIC [4] [µg/mL]	MIC [5] [µg/mL]	MIC [6] [µg/mL]	MIC [7] [µg/mL]	MIC [8] [µg/mL]	MIC [9] [µg/mL]	MIC [10] [µg/mL]	log10cfu [11]	MIC [12] [µg/mL]	MIC [13] [µg/mL]	log10cfu [14]	other results
NNC(=O)c1ccncc1 [ISONIAZID]	0.03 (≈ 0.219 µM)	0.06 (≈ 0.438 µM)	0.06 (≈ 0.438 µM)	0.03 (≈ 0.219 µM)	0.03 (≈ 0.219 µM)	0.06 (≈ 0.438 µM)	0.06 (≈ 0.438 µM)	0.03 (≈ 0.219 µM)	0.03 (≈ 0.219 µM)	0.03 (≈ 0.219 µM)	1	0.03 (≈ 0.219 µM)	0.03 (≈ 0.219 µM)	1.4	–
Cc1ncc([N+](=O)[O-])n1CCO [METRONIDAZOLE]	–	–	–	–	–	–	–	–	–	–	3.2	–	–	2.8	–
CCC1Cn2cc([N+](=O)[O-])nc2O1 (stereo unspecified)	–	–	–	–	–	–	–	–	–	–	1.5	–	–	1.8	–
O=[N+]([O-])c1cn2c(n1)OC[C@@H](OCc1ccc(OC(F)(F)F)cc1)C2 [PRETOMANID]	0.015 (≈ 0.0418 µM)	0.06 (≈ 0.167 µM)	0.13 (≈ 0.362 µM)	0.06 (≈ 0.167 µM)	0.06 (≈ 0.167 µM)	0.25 (≈ 0.696 µM)	0.06 (≈ 0.167 µM)	0.06 (≈ 0.167 µM)	0.06 (≈ 0.167 µM)	0.06 (≈ 0.167 µM)	3.1	0.13 (≈ 0.362 µM)	0.13 (≈ 0.362 µM)	3.5	Activity [15]: Active; Activity [16]: Active; Activity (Mus musculus [17]): Toxic; Activity [18]: Active; Activity (Mus musculus [19]): Toxic; Activity [20]: Active; Activity [21]: Active; Activity [22]: Active; Activity [23]: Active
